Source: ChEMBL document CHEMBL3046594, “Bioactive metabolites from an endophytic fungus of Aspergillus species isolated from seeds of Gloriosa superba Linn” (Med Chem Res, 2013)
≈ marks a conversion by molar mass, not a printed value. Calls of active or inactive are those of the source. No cut-off for these calls is given here.

Tests used:
[1] = tested on: THP-1; assay: Cytotoxicity against Homo sapiens (human) THP1 cells assessed as growth inhibition at 20 uM after 48 hr by SRB assay; format: functional; details: THP-1, 48 h, read-out: GI
[2] = tested on: CV-1; assay: Cytotoxicity against Chlorocebus aethiops (African green monkey) CV1 cells assessed as growth inhibition at 20 uM after 48 hr by SRB assay; format: functional; details: CV-1, 48 h, read-out: GI
[3] = tested on: HEp-2; assay: Cytotoxicity against Homo sapiens (human) Hep2 cells assessed as growth inhibition at 20 uM after 48 hr by SRB assay; format: functional; details: HEp-2, 48 h, read-out: GI
[4] = tested on: A549; assay: Cytotoxicity against Homo sapiens (human) A549 cells assessed as growth inhibition at 20 uM after 48 hr by SRB assay; format: functional; details: A549, 48 h, read-out: GI
[5] = tested on: Goffeauzyma gastrica; assay: Antifungal activity against Cryptococcus gastricus MTCC 1715 assessed as growth inhibition at 2 mg/mL after 48 hr by disk diffusion method; format: functional
[6] = tested on: Saccharomyces cerevisiae; assay: Antifungal activity against Saccharomyces cerevisiae MTCC 172 assessed as growth inhibition at 2 mg/mL after 48 hr by disk diffusion method; format: functional
[7] = tested on: Salmonella typhi; assay: Antibacterial activity against Salmonella enterica subsp. enterica serovar Typhi MTCC 1251 assessed as growth inhibition at 2 mg/mL after 24 hr by disk diffusion method; format: functional, organism-based
[8] = tested on: Pseudomonas aeruginosa; assay: Antibacterial activity against Pseudomonas aeruginosa MTCC 2642 assessed as growth inhibition at 2 mg/mL after 24 hr by disk diffusion method; format: functional; details: MTCC 2642, 24 h, read-out: DIZ
[9] = tested on: Escherichia coli; assay: Antibacterial activity against Escherichia coli MTCC 82 assessed as growth inhibition at 2 mg/mL after 24 hr by disk diffusion method; format: functional
[10] = tested on: Staphylococcus aureus; assay: Antibacterial activity against Staphylococcus aureus MTCC 96 assessed as growth inhibition at 2 mg/mL after 24 hr by disk diffusion method; format: functional; details: MTCC 96, 24 h, read-out: DIZ
[11] = tested on: Bacillus subtilis; assay: Antibacterial activity against Bacillus subtilis MTCC 2451 assessed as growth inhibition at 2 mg/mL after 24 hr by disk diffusion method; format: functional
[12] = tested on: Candida albicans; assay: Antifungal activity against Candida albicans MTCC 3018 assessed as growth inhibition at 2 mg/mL after 48 hr by disk diffusion method; format: functional
[13] = tested on: MCF7; assay: Cytotoxicity against Homo sapiens (human) MCF7 cells assessed as growth inhibition after 48 hr by SRB assay; format: functional, cell-based; details: MCF7, 48 h
[14] = tested on: THP-1; assay: Cytotoxicity against Homo sapiens (human) THP1 cells assessed as growth inhibition after 48 hr by SRB assay; format: functional, cell-based; details: THP-1, 48 h
[15] = tested on: THP-1; assay: Cytotoxicity against Homo sapiens (human) THP1 cells assessed as growth inhibition at 100 uM after 48 hr by SRB assay; format: functional; details: THP-1, 48 h, read-out: GI
[16] = tested on: THP-1; assay: Cytotoxicity against Homo sapiens (human) THP1 cells assessed as growth inhibition at 50 uM after 48 hr by SRB assay; format: functional; details: THP-1, 48 h, read-out: GI
[17] = tested on: THP-1; assay: Cytotoxicity against Homo sapiens (human) THP1 cells assessed as growth inhibition at 30 uM after 48 hr by SRB assay; format: functional; details: THP-1, 48 h, read-out: GI
[18] = tested on: THP-1; assay: Cytotoxicity against Homo sapiens (human) THP1 cells assessed as growth inhibition at 10 uM after 48 hr by SRB assay; format: functional; details: THP-1, 48 h, read-out: GI
[19] = tested on: OVCAR-5; assay: Cytotoxicity against Homo sapiens (human) OVCAR5 cells assessed as growth inhibition at 100 uM after 48 hr by SRB assay; format: functional; details: OVCAR-5, 48 h, read-out: GI
[20] = tested on: OVCAR-5; assay: Cytotoxicity against Homo sapiens (human) OVCAR5 cells assessed as growth inhibition at 50 uM after 48 hr by SRB assay; format: functional; details: OVCAR-5, 48 h, read-out: GI
[21] = tested on: OVCAR-5; assay: Cytotoxicity against Homo sapiens (human) OVCAR5 cells assessed as growth inhibition at 30 uM after 48 hr by SRB assay; format: functional; details: OVCAR-5, 48 h, read-out: GI
[22] = tested on: OVCAR-5; assay: Cytotoxicity against Homo sapiens (human) OVCAR5 cells assessed as growth inhibition at 10 uM after 48 hr by SRB assay; format: functional; details: OVCAR-5, 48 h, read-out: GI
[23] = tested on: CV-1; assay: Cytotoxicity against Chlorocebus aethiops (African green monkey) CV1 cells assessed as growth inhibition at 100 uM after 48 hr by SRB assay; format: functional; details: CV-1, 48 h, read-out: GI
[24] = tested on: CV-1; assay: Cytotoxicity against Chlorocebus aethiops (African green monkey) CV1 cells assessed as growth inhibition at 50 uM after 48 hr by SRB assay; format: functional; details: CV-1, 48 h, read-out: GI
[25] = tested on: CV-1; assay: Cytotoxicity against Chlorocebus aethiops (African green monkey) CV1 cells assessed as growth inhibition at 30 uM after 48 hr by SRB assay; format: functional; details: CV-1, 48 h, read-out: GI
[26] = tested on: MCF7; assay: Cytotoxicity against Homo sapiens (human) MCF7 cells assessed as growth inhibition at 50 uM after 48 hr by SRB assay; format: functional; details: MCF7, 48 h, read-out: GI
[27] = tested on: MCF7; assay: Cytotoxicity against Homo sapiens (human) MCF7 cells assessed as growth inhibition at 100 uM after 48 hr by SRB assay; format: functional; details: MCF7, 48 h, read-out: GI
[28] = tested on: MCF7; assay: Cytotoxicity against Homo sapiens (human) MCF7 cells assessed as growth inhibition at 30 uM after 48 hr by SRB assay; format: functional; details: MCF7, 48 h, read-out: GI
[29] = tested on: MCF7; assay: Cytotoxicity against Homo sapiens (human) MCF7 cells assessed as growth inhibition at 10 uM after 48 hr by SRB assay; format: functional; details: MCF7, 48 h, read-out: GI
[30] = tested on: A549; assay: Cytotoxicity against Homo sapiens (human) A549 cells assessed as growth inhibition at 100 uM after 48 hr by SRB assay; format: functional; details: A549, 48 h, read-out: GI
[31] = tested on: Goffeauzyma gastrica; assay: Antifungal activity against Cryptococcus gastricus MTCC 1715 assessed as growth inhibition after 48 hr by broth dilution method; format: functional; details: MTCC 1715, 48 h
[32] = tested on: Candida albicans; assay: Antifungal activity against Candida albicans MTCC 3018 assessed as growth inhibition after 48 hr by broth dilution method; format: functional; details: MTCC 3018, 48 h
[33] = tested on: Saccharomyces cerevisiae; assay: Antifungal activity against Saccharomyces cerevisiae MTCC 172 assessed as growth inhibition after 48 hr by broth dilution method; format: functional; details: MTCC 172, 48 h
[34] = tested on: Salmonella typhi; assay: Antibacterial activity against Salmonella enterica subsp. enterica serovar Typhi MTCC 1251 assessed as growth inhibition after 24 hr by broth dilution method; format: functional, organism-based
[35] = tested on: Pseudomonas aeruginosa; assay: Antibacterial activity against Pseudomonas aeruginosa MTCC 2642 assessed as growth inhibition after 24 hr by broth dilution method; format: functional; details: MTCC 2642, 24 h
[36] = tested on: Escherichia coli; assay: Antibacterial activity against Escherichia coli MTCC 82 assessed as growth inhibition after 24 hr by broth dilution method; format: functional; details: MTCC 82, 24 h
[37] = tested on: Staphylococcus aureus; assay: Antibacterial activity against Staphylococcus aureus MTCC 96 assessed as growth inhibition after 24 hr by broth dilution method; format: functional; details: MTCC 96, 24 h
[38] = tested on: Bacillus subtilis; assay: Antibacterial activity against Bacillus subtilis MTCC 2451 assessed as growth inhibition after 24 hr by broth dilution method; format: functional; details: MTCC 2451, 24 h
[39] = tested on: Goffeauzyma gastrica; assay: Antifungal activity against Cryptococcus gastricus MTCC 1715 assessed as growth inhibition at 10 ug/disk after 48 hr by disk diffusion method; format: functional; details: MTCC 1715, 48 h, read-out: DIZ
[40] = tested on: Candida albicans; assay: Antifungal activity against Candida albicans MTCC 3018 assessed as growth inhibition at 10 ug/disk after 48 hr by disk diffusion method; format: functional; details: MTCC 3018, 48 h, read-out: DIZ
[41] = tested on: Saccharomyces cerevisiae; assay: Antifungal activity against Saccharomyces cerevisiae MTCC 172 assessed as growth inhibition at 10 ug/disk after 48 hr by disk diffusion method; format: functional; details: MTCC 172, 48 h, read-out: DIZ

`O=c1[nH]cc(F)c(=O)[nH]1` [FLUOROURACIL] gave an inhibition of growth at 20 µM [1] of 79%, an inhibition of growth at 20 µM [2] of 43% and an inhibition of growth at 20 µM [3] of 87%. The inhibition of growth at 20 µM [4] was 79%.
With `CC(C)[C@@H](C)/C=C/[C@@H](C)[C@H]1CC[C@H]2C3=CC=C4C[C@@H](O)CC[C@]4(C)[C@H]3CC[C@]12C` [ERGOSTEROL] the “growth inhibition (GI)” value [5] was “inactive”, the “growth inhibition (GI)” value [6] was “inactive” and the “growth inhibition (GI)” value [7] was “inactive”. The zone of inhibition at 2000 µg/mL [8] was 8.7 mm, the “growth inhibition (GI)” value [9] was “inactive” and the zone of inhibition at 2000 µg/mL [10] was 11.2 mm. The “growth inhibition (GI)” value [11] was “inactive” and the “growth inhibition (GI)” value [12] was “inactive”.
Work on `CC(=O)NC12C=CC(=O)C=CC1c1c(cc(O)c(O)c1O)CC2C` (centres undefined) yielded an IC50 [13] of 50 µg/mL (≈ 152 µM), an IC50 [14] of 30 µg/mL (≈ 91.1 µM) and an inhibition of growth at 100 µM [15] of 80%. For the same compound, the inhibition of growth at 50 µM [16] was 67%, the inhibition of growth at 30 µM [17] was 55% and the inhibition of growth at 10 µM [18] was 48%. The inhibition of growth at 100 µM [19] was 43%, the inhibition of growth at 50 µM [20] was 33% and the inhibition of growth at 30 µM [21] was 17%. It also gave an inhibition of growth at 10 µM [22] of 9%, an inhibition of growth at 100 µM [23] of 35% and an inhibition of growth at 50 µM [24] of 19%. The inhibition of growth at 30 µM [25] was 13%, the inhibition of growth at 50 µM [26] was 52% and the inhibition of growth at 100 µM [27] was 70%. It also gave an inhibition of growth at 30 µM [28] of 33%, an inhibition of growth at 10 µM [29] of 26% and an inhibition of growth at 100 µM [30] of 23%. For the same compound, the MIC [31] was 50 µg/mL (≈ 152 µM), the MIC [32] was 12.5 µg/mL (≈ 38 µM) and the MIC [33] was 25 µg/mL (≈ 75.9 µM). For the same compound, the MIC [34] was “inactive”, the MIC [35] was over 100 µg/mL and the MIC [36] was 100 µg/mL (≈ 304 µM). The MIC [37] was 25 µg/mL (≈ 75.9 µM), the MIC [38] was 50 µg/mL (≈ 152 µM) and the zone of inhibition at 2000 µg/mL ([5]; MTCC 1715, 48 h, read-out: DIZ) was 15.3 mm. For the same compound, the zone of inhibition at 2000 µg/mL ([6]; MTCC 172, 48 h, read-out: DIZ) was 16.9 mm, the “growth inhibition (GI)” value [7] was “inactive” and the zone of inhibition at 2000 µg/mL [8] was 11.9 mm. It also gave a zone of inhibition at 2000 µg/mL ([9]; MTCC 82, 24 h, read-out: DIZ) of 13.3 mm, a zone of inhibition at 2000 µg/mL [10] of 15.7 mm and a zone of inhibition at 2000 µg/mL ([11]; MTCC 2451, 24 h, read-out: DIZ) of 17.5 mm. It also gave a zone of inhibition at 2000 µg/mL ([12]; MTCC 3018, 48 h, read-out: DIZ) of 18.9 mm.
`OC(Cn1cncn1)(Cn1cncn1)c1ccc(F)cc1F` [FLUCONAZOLE] gave a zone of inhibition at 10 µg/disc [39] of 19.7 mm, a zone of inhibition at 10 µg/disc [40] of 20 mm and a zone of inhibition at 10 µg/disc [41] of 21 mm.
